Results published in patent US20220169629A1, “PESTICIDALLY ACTIVE DIAZINE-AMIDE COMPOUNDS” (SYNGENTA CROP PROTECTION AG, priority 2019, published 2022).

Key:
Assay type in all cases: in vivo
[1] = system: Plutella xylostella (diamond back moth); test: Example B5: Plutella xylostella (diamond back moth), artificial diet, 24-well, eggs; conditions: 192 h, application rate of 200 ppm, 8 days after infestation, read-out: control in at least one of the two categories (mortality or growth inhibition)
Experimental: Example B5: Plutella xylostella (Diamond Back Moth)
24-well microtiter plates with artificial diet were treated with aqueous test solutions prepared from 10′000 ppm DMSO stock solutions by pipetting. After drying, Plutella eggs were pipetted through a plastic stencil onto a gel blotting paper and the plate was closed with it. The samples were assessed for mortality and growth inhibition in comparison to untreated samples 8 days after infestation.

[2] = system: Spodoptera littoralis (Egyptian cotton leaf worm); test: Example B7: Spodoptera littoralis (Egyptian cotton leaf worm), sprayed cotton leaf discs, L1 larvae; conditions: foliar, 72 h, application rate of 200 ppm, 3 days after infestation, L1 larvae on cotton leaf discs, read-out: control in at least one of the three categories (mortality, anti-feeding or growth inhibition)
Experimental: Example B7: Spodoptera littoralis (Egyptian Cotton Leaf Worm)
Cotton leaf discs were placed onto agar in 24-well microtiter plates and sprayed with aqueous test solutions prepared from 10′000 ppm DMSO stock solutions. After drying the leaf discs were infested with five L1 larvae. The samples were assessed for mortality, anti-feeding effect, and growth inhibition in comparison to untreated samples 3 days after infestation. Control of Spodoptera littoralis by a test sample is given when at least one of the categories mortality, anti-feedant effect, and growth inhibition is higher than the untreated sample.

[3] = system: Chilo suppressalis (striped rice stemborer); test: Example B4: Chilo suppressalis (striped rice stemborer), artificial diet, L2 larvae; conditions: 144 h, application rate of 200 ppm, 6 days after infestation, L2 larvae on artificial diet, read-out: control in at least one of the three categories (mortality, anti-feeding or growth inhibition)
Experimental: Example B4: Chilo suppressalis (Striped rice stemborer)
24-well microtiter plates with artificial diet were treated with aqueous test solutions prepared from 10′000 ppm DMSO stock solutions by pipetting. After drying, the plates were infested with L2 larvae (6-8 per well). The samples were assessed for mortality, anti-feeding effect, and growth inhibition in comparison to untreated samples 6 days after infestation. Control of Chilo suppressalis by a test sample is given when at least one of the categories mortality, anti-feedant effect, and growth inhibition is higher than the untreated sample.

[4] = system: Diabrotica balteata (corn root worm); test: Example B1: Diabrotica balteata (corn root worm), sprayed maize sprouts, L2 larvae; conditions: 96 h, application rate of 200 ppm, 4 days after infestation, L2 larvae on maize sprouts, read-out: control in at least one of the two categories (mortality or growth inhibition)
Experimental: Example B1: Diabrotica Balteata (Corn Root Worm)
Maize sprouts placed onto an agar layer in 24-well microtiter plates were treated with aqueous test solutions prepared from 10′000 ppm DMSO stock solutions by spraying. After drying, the plates were infested with L2 larvae (6 to 10 per well). The samples were assessed for mortality and growth inhibition in comparison to untreated samples 4 days after infestation.

[5] = system: Plutella xylostella (diamondback moth); test: Example B10: Plutella xylostella (diamondback moth), 96-well artificial diet; conditions: 216 h, application rate of 500 ppm, 9 days after infestation, eggs/L1 larvae
Experimental: Example B10: Plutella xylostella (Diamondback Moth)
96-well microtiter plates containing artificial diet were treated with aqueous test solutions, prepared from 10′000 ppm DMSO stock solutions, by a liquid handling robot. After drying, eggs (˜30 per well) were infested onto a netted lid which was suspended above the diet. The eggs hatch and L1 larvae move down to the diet. The samples were assessed for mortality 9 days after infestation.

CC(NC(=O)c1cc(OCC(F)F)cc(C(F)(F)F)c1)c1nccnc1-c1ccc(OC(F)F)cn1 (stereo not shown) [Compound P2, 3-(2,2-difluoroethoxy)-N-[1-[3-[5-(difluoromethoxy)-2-pyridyl]pyrazin-2-yl]ethyl]-5-(trifluoromethyl)benzamide]
≥ 80%: percent control (mortality or growth inhibition) at 200 ppm [1] | percent control (mortality, anti-feeding or growth inhibition) at 200 ppm [2] | control at 200 ppm [3]

CC(NC(=O)c1cc(OC(F)F)cc(C(F)(F)F)c1)c1nccnc1-c1ccc(OC(F)F)cn1 (stereo not shown) [Compound P4, 3-(difluoromethoxy)-N-[1-[3-[5-(difluoromethoxy)-2-pyridyl]pyrazin-2-yl]ethyl]-5-(trifluoromethyl)benzamide]
≥ 80%: percent control (mortality or growth inhibition) at 200 ppm [4] | percent control (mortality or growth inhibition) at 200 ppm [1] | percent control (mortality, anti-feeding or growth inhibition) at 200 ppm [2] | control at 200 ppm [3]

CC(NC(=O)c1cc(OCC(F)(F)F)cc(C(F)(F)F)c1)c1nccnc1-c1ccc(OC(F)F)cn1 (stereo not shown) [Compound P6, N-[1-[3-[5-(difluoromethoxy)-2-pyridyl]pyrazin-2-yl]ethyl]-3-(2,2,2-trifluoroethoxy)-5-(trifluoromethyl)benzamide]
≥ 80%: percent control (mortality or growth inhibition) at 200 ppm [4] | percent control (mortality or growth inhibition) at 200 ppm [1] | percent control (mortality, anti-feeding or growth inhibition) at 200 ppm [2] | control at 200 ppm [3]

CC(NC(=O)c1cc(Cl)cc(C(F)(F)F)c1)c1nccnc1-c1ccc(C#N)cn1 (stereo not shown) [Compound P7, 3-chloro-N-[1-[3-(5-cyano-2-pyridyl)pyrazin-2-yl]ethyl]-5-(trifluoromethyl)benzamide]
≥ 80%: percent control (mortality or growth inhibition) at 200 ppm [4] | percent control (mortality or growth inhibition) at 200 ppm [1] | percent control (mortality, anti-feeding or growth inhibition) at 200 ppm [2] | control at 200 ppm [3]

CC(NC(=O)c1cc(Cl)cc(C(F)(F)F)c1)c1nccnc1-c1ccc(OC(F)F)cn1 (stereo not shown) [Compound P8, 3-chloro-N-[1-[3-[5-(difluoromethoxy)-2-pyridyl]pyrazin-2-yl]ethyl]-5-(trifluoromethyl)benzamide]
≥ 80%: percent control (mortality or growth inhibition) at 200 ppm [4] | percent control (mortality or growth inhibition) at 200 ppm [1] | percent control (mortality, anti-feeding or growth inhibition) at 200 ppm [2] | control at 200 ppm [3]

CC(NC(=O)c1cc(Br)cc(C(F)(F)F)c1)c1nccnc1-c1ncc(OCC(F)(F)F)cn1 (stereo not shown) [Compound P9, 3-bromo-N-[1-[3-[5-(2,2,2-trifluoroethoxy)pyrimidin-2-yl]pyrazin-2-yl]ethyl]-5-(trifluoromethyl)benzamide]
≥ 80%: percent control (mortality or growth inhibition) at 200 ppm [4] | percent control (mortality or growth inhibition) at 200 ppm [1] | percent control (mortality, anti-feeding or growth inhibition) at 200 ppm [2] | control at 200 ppm [3]

CC(NC(=O)c1cc(Br)cc(C(F)(F)F)c1)c1nccnc1-c1ccc(C#N)cn1 (stereo not shown) [Compound P10, 3-bromo-N-[1-[3-(5-cyano-2-pyridyl)pyrazin-2-yl]ethyl]-5-(trifluoromethyl)benzamide]
≥ 80%: percent control (mortality or growth inhibition) at 200 ppm [4] | percent control (mortality or growth inhibition) at 200 ppm [1] | percent control (mortality, anti-feeding or growth inhibition) at 200 ppm [2] | control at 200 ppm [3]

CC(NC(=O)c1cc(Br)cc(C(F)(F)F)c1)c1nccnc1-c1ccc(OC(F)F)cn1 (stereo not shown) [Compound P11, 3-bromo-N-[1-[3-[5-(difluoromethoxy)-2-pyridyl]pyrazin-2-yl]ethyl]-5-(trifluoromethyl)benzamide]
≥ 80%: percent control (mortality or growth inhibition) at 200 ppm [4] | percent control (mortality or growth inhibition) at 200 ppm [1] | percent control (mortality, anti-feeding or growth inhibition) at 200 ppm [2] | control at 200 ppm [3]

CC(NC(=O)c1cc(OC(F)F)cc(C(F)(F)F)c1)c1nccnc1-c1ccc(OCC(F)(F)F)cn1 (stereo not shown) [Compound P12, 3-(difluoromethoxy)-N-[1-[3-[5-(2,2,2-trifluoroethoxy)-2-pyridyl]pyrazin-2-yl]ethyl]-5-(trifluoromethyl)benzamide]
≥ 80%: percent control (mortality or growth inhibition) at 200 ppm [1] | mortality at 500 ppm [5] | percent control (mortality, anti-feeding or growth inhibition) at 200 ppm [2] | control at 200 ppm [3]

CC(NC(=O)c1cc(OCC(F)(F)F)cc(C(F)(F)F)c1)c1nccnc1-c1ccc(OCC(F)(F)F)cn1 (stereo not shown) [Compound P14, 3-(2,2,2-trifluoroethoxy)-N-[1-[3-[5-(2,2,2-trifluoroethoxy)-2-pyridyl]pyrazin-2-yl]ethyl]-5-(trifluoromethyl)benzamide]
≥ 80%: percent control (mortality or growth inhibition) at 200 ppm [1] | mortality at 500 ppm [5] | control at 200 ppm [3]

CC(NC(=O)c1cc(OCC(F)F)cc(C(F)(F)F)c1)c1nccnc1-c1ccc(OCC(F)(F)F)cn1 (stereo not shown) [Compound P17, 3-(2,2-difluoroethoxy)-N-[1-[3-[5-(2,2,2-trifluoroethoxy)-2-pyridyl]pyrazin-2-yl]ethyl]-5-(trifluoromethyl)benzamide]
≥ 80%: percent control (mortality or growth inhibition) at 200 ppm [1] | mortality at 500 ppm [5] | percent control (mortality, anti-feeding or growth inhibition) at 200 ppm [2]

CC(NC(=O)c1cc(Br)cc(C(F)(F)F)c1)c1nccnc1-c1ccc(OCC(F)(F)F)cn1 (stereo not shown) [Compound P18, 3-bromo-N-[1-[3-[5-(2,2,2-trifluoroethoxy)-2-pyridyl]pyrazin-2-yl]ethyl]-5-(trifluoromethyl)benzamide]
≥ 80%: percent control (mortality or growth inhibition) at 200 ppm [1] | mortality at 500 ppm [5] | percent control (mortality, anti-feeding or growth inhibition) at 200 ppm [2] | control at 200 ppm [3]

CC(NC(=O)c1cc(Cl)cc(C(F)(F)F)c1)c1nccnc1-c1ccc(OCC(F)F)cn1 (stereo not shown) [Compound P20, 3-chloro-N-[1-[3-[5-(2,2-difluoroethoxy)-2-pyridyl]pyrazin-2-yl]ethyl]-5-(trifluoromethyl)benzamide]
≥ 80%: percent control (mortality or growth inhibition) at 200 ppm [1] | mortality at 500 ppm [5] | percent control (mortality, anti-feeding or growth inhibition) at 200 ppm [2] | control at 200 ppm [3]

CC(NC(=O)c1cc(C(F)(F)F)cc(C(F)(F)F)c1)c1nccnc1-c1ccc(C#N)cn1 (stereo not shown) [Compound P31, N-[1-[3-(5-cyano-2-pyridyl)pyrazin-2-yl]ethyl]-3,5-bis(trifluoromethyl)benzamide]
≥ 80%: percent control (mortality or growth inhibition) at 200 ppm [1] | mortality at 500 ppm [5] | percent control (mortality, anti-feeding or growth inhibition) at 200 ppm [2] | control at 200 ppm [3]

CC(NC(=O)c1cc(OCC(F)F)cc(C(F)(F)F)c1)c1nccnc1-c1ncc(OCC(F)F)cn1 (stereo not shown) [Compound P32, 3-(2,2-difluoroethoxy)-N-[1-[3-[5-(2,2-difluoroethoxy)pyrimidin-2-yl]pyrazin-2-yl]ethyl]-5-(trifluoromethyl)benzamide]
≥ 80%: percent control (mortality or growth inhibition) at 200 ppm [1] | percent control (mortality, anti-feeding or growth inhibition) at 200 ppm [2] | control at 200 ppm [3]

CC(NC(=O)c1cc(Cl)cc(C(F)(F)F)c1)c1nccnc1-c1ncc(OCC(F)F)cn1 (stereo not shown) [Compound P36, 3-chloro-N-[1-[3-[5-(2,2-difluoroethoxy)pyrimidin-2-yl]pyrazin-2-yl]ethyl]-5-(trifluoromethyl)benzamide]
≥ 80%: percent control (mortality or growth inhibition) at 200 ppm [1] | percent control (mortality, anti-feeding or growth inhibition) at 200 ppm [2]

CC(NC(=O)c1cc(OCC(F)(F)F)cc(C(F)(F)F)c1)c1nccnc1-c1ncc(OCC(F)F)cn1 (stereo not shown) [Compound P38, N-[1-[3-[5-(2,2-difluoroethoxy)pyrimidin-2-yl]pyrazin-2-yl]ethyl]-3-(2,2,2-trifluoroethoxy)-5-(trifluoromethyl)benzamide]
≥ 80%: percent control (mortality or growth inhibition) at 200 ppm [1] | percent control (mortality, anti-feeding or growth inhibition) at 200 ppm [2] | control at 200 ppm [3]
